According to paper PMC4472604 (ACS chemical neuroscience, 2015):

Tests used:
[1] = target: T1, DOR (Mus musculus, UniProt P32300); assay: Competition binding against [125I]-3
[2] = target: KOR (Mus musculus, UniProt P33534); assay: Competition binding against [125I]BNtxA in KOR-CHO membranes
[3] = target: MOR (Mus musculus, UniProt P42866); assay: Competition binding against [125I]BNtxA in MOR-CHO membranes
[4] = target: 6TM/E11 sites (Mus musculus, UniProt P42866); format: binding
[5] = target: T1, DOR; assay: [125I]-3 saturation binding in DOR-CHO membranes; conditions: mean ± SEM

Molecule `Oc1ccc2c3c1O[C@H]1c4oc5ccccc5c4C[C@@]4(O)[C@@H](C2)N(CC2CC2)CC[C@]314` [Naltriben] has a Ki [1] of 0.14 ± 0.04 nM.

`Oc1ccc2c3c1O[C@H]1c4[nH]c5ccccc5c4C[C@@]4(O)[C@@H](C2)N(CC2CC2)CC[C@]314` [Naltrindole] gave a Ki [1] of 0.79 ± 0.16 nM.

`CC(C)[C@H](NC(=O)[C@H](CCC(=O)O)NC(=O)[C@H](Cc1ccccc1)NC(=O)[C@@H](C)NC(=O)[C@@H](N)Cc1ccc(O)cc1)C(=O)N[C@H](C(=O)NCC(N)=O)C(C)C` [[D-Ala^2]deltorphin II, Tyr-D-Ala-Phe-Glu-Val-Val-Gly-NH2] was tested, and the Ki [2] was > 1000 nM, the Ki [3] was > 1000 nM and the Ki [4] was > 1000 nM.

In the case of “Tyr-D-Ala-(p-^125I)Phe-Glu-Ile-Ile-Gly-NH2 [[^125I]-3]”, the Bmax [5] is reported as 196.97 ± 12.44 fmol/mg.
